Source: patent US11512279B2, “Technology to generate and utilize customized microorganism-growth assay keys” (priority 2018, dated 2022)

How the values were obtained:
C. auris [1] = assay: Differentiation of C. auris from other Candida species with other QACs in growth media; assay type: cell-based; details: QAC added to growth medium
C. auris [2] = assay: Plate assay on Sabouraud dextrose medium with tBHP (FIGS. 13A-13B); assay type: cell-based, Candida auris; details: 30° C.
Method: FIGS. 13A-13B illustrate C. auris's relative sensitivity to tBHP. FIG. 13A depicts a plate with a tBHP-containing culture medium that includes seven different yeasts (Candida albicans, Candida glabrata, Candida krusei, Candida auris, Candida haemulonii, Candida famata, and Saccharomyces cerevisiae) at five different calculated cell counts (62, 625, 6,250, […], with the uncertainty inherent in the calculation). The yeast-containing plate was incubated at 30° C. The plating scheme is illustrated in FIG. 1. The culture medium comprised a Sabouraud dextrose medium with tBHP (added after autoclaving the other media ingredients from a 70% solution in water). Whereas a resuspension of cells picked from a colony will always enhance the sensitivity of this (and related) assays, it is possible to streak cells without any dilution directly from a colony if the plate is evaluated early (after approximately 24 hours, some regrowth will occur later), as depicted in FIG. 13B. […]

Candida auris = assay: BAC media panel growth key (Table A, FIG. 19); assay type: cell-based; details: BAC low 1.5 mg/l or high 10 mg/l; pH 3.3 or 7.5; peptone, potato dextrose or YNB with amino acids; 23° C. or 37° C.
Text: (§1) As an example, a group of 36 yeast strains with Candida-like morphology representing 29 different species was used to define single species or subgroups of species depending on their QAC sensitivity at different temperatures, pH values and in the presence of different supplements (e.g. peptone, potato dextrose, and YNB with amino acids).
(§2) Preliminary tests were designed with several representative yeast strains with a range of benzalkonium chloride (“BAC”) concentrations, a mix of supplements, neutral pH, and intermediate temperature (30° C.). The observed growth characteristics made it likely that two BAC concentrations (“low”=1.5 mg/l and “high”=10 mg/l) could be used in conjunction with the three different growth supplements (used separately). Low and high pH and temperature values were defined to elicit species-specific growth responses: two different pH conditions (pH 3.3 and pH 7.5, adjusted with concentrations of HCl or 100 mg/ml NaOH) and incubation temperatures (23° C. and 37° C.). Commonly used concentrations for peptone (20 g/l), potato dextrose (24 g/l), and yeast nitrogen base with amino acids (6.7 g/l) were applied. […] For example: “pH7.5/low BAC/Pep-23° C.” refers to a plate with pH 7.5, […] BAC (low BAC) containing peptone as a growth supplement and incubated at 23° C.
(§3) All 36 strains were streaked and precultured for 48 h on Sabauroud-dextrose medium at 30° C. before cell samples were suspended in water (as described before). 10-15 μl drops of these suspensions were applied to the different media and plates were incubated in parallel at 37° C. and 23° C. These drops were classified as growing (+) or non-growing (−) after 3 days or 5 days of incubation, respectively.

Candida valida = assay: BAC media panel growth key (Table A, FIG. 19); assay type: cell-based; details: BAC low 1.5 mg/l or high 10 mg/l; pH 3.3 or 7.5; peptone, potato dextrose or YNB with amino acids; 23° C. or 37° C.
Text: as §1, §2, §3

Candida rugosa = assay: BAC media panel growth key (Table A, FIG. 19); assay type: cell-based; details: BAC low 1.5 mg/l or high 10 mg/l; pH 3.3 or 7.5; peptone, potato dextrose or YNB with amino acids; 23° C. or 37° C.
Text: as §1, §2, §3

Candida guilliermondii = assay: BAC media panel growth key (Table A, FIG. 19); assay type: cell-based; details: BAC low 1.5 mg/l or high 10 mg/l; pH 3.3 or 7.5; peptone, potato dextrose or YNB with amino acids; 23° C. or 37° C.
Text: as §1, §2, §3

CC(C)(C)CC(C)(C)c1ccc(OCCOCC[N+](C)(C)Cc2ccccc2)cc1 [benzethonium chloride] was tested. Which “use to differentiate C. auris from other Candida species” value (C. auris [1]) did it give?
Its value is “successfully used”.

How did the “sensitivity to tBHP relative to other yeasts” value (C. auris [2]) turn out when CC(C)(C)OO [tert-butyl-hydroperoxide] was run?
Its value is “relatively high sensitivity”.

For CCCCCCCCCCCCCC[N+](C)(C)C.[Br-] [tetradecyltrimethylammonium bromide], which “use to differentiate C. auris from other Candida species” value (C. auris [1]) is on record?
Its value is “successfully used”.

What does the source list for benzalkonium chloride?
use to differentiate C. auris from other Candida species (C. auris [1]): successfully used; growth pattern over 24 BAC / supplement / pH / temperature conditions (Candida auris): resistance to BAC under virtually all conditions; growth pattern over 24 BAC / supplement / pH / temperature conditions (Candida valida): BAC sensitivity under all conditions; growth pattern over 24 BAC / supplement / pH / temperature conditions (Candida rugosa): growth at the high concentration appears to be restricted to the low pH; growth pattern over 24 BAC / supplement / pH / temperature conditions (Candida guilliermondii): growth is observed under all conditions at 23 °C but not 37 °C
